Data on 2 compounds can be found in patent publication US20120141390A1, “Natural Preservatives and Antimicrobial Agents” (priority 2007, published 2012).

Holding throughout (assay): Microplate antibacterial assay (optical density at 540 nm)
Holding throughout (assay type): cell-based

The test system of assay [1] is Proteus vulgaris ACM 4730. Particulars: 37° C., 22 h; for MIC0: highest concentration with no inhibition of growth; for MIC100: lowest concentration giving 100% inhibition. The protocol: (§1) Bacterial strains and growth conditions: Test organisms used in the assay were Staphylococcus aureus strain 6571 (NCTC—National Collection of Type Cultures, Health Protection Agency Centre for Infection, London, UK), Streptococcus mutans ACM 969 and Proteus vulgaris ACM 4730, were supplied by the Australian Collection of Microorganisms (ACM), University of Queensland. The test organisms were grown for 24 h in Tryptone Soya Yeast Extract Broth (TSYEB) (Oxoid CM 129B, Basingstoke, UK), 30 g/L; yeast extract (Oxoid CM19), 6 g/L. The inoculum was quantified by measuring the optical density (absorbance) at 540 nm and adjusted to 0.5 absorbance with TSYEB.
(§2) Preparation and dilution of bacterial strains: An inoculum was prepared by serially diluting (1:1) the overnight culture of the test organisms in TSYEB broth 22 times. The dilutions from 11-22 were used on the 96 well microlitre plate. After the dilutions were made the lowest dilution was plated on Plate Count Agar (Oxoid CM0463) for all the test organisms to confirm the bacterial count.
(§3) Preparation of Polyphenol Powder from Molasses: the Polyphenol Powder from Molasses (0.1 g) was dissolved in 10 ml of TSYEB. This solution was diluted in TSYEB starting at a concentration of 1% (w/v) and diluted to 0.0005% (w/v).
(§4) Preparation of Antibiotic Solutions: the Antibiotics Penicillin G and Oxytetracyclin hydrochloride from Sigma-Aldrich (St. Louis, Mo.) were used in this study. 0.01 g each of Penicillin G and Oxytetracyclin were dissolved in 20 ml of TSYEB.
(§5) The antibiotic solutions of Penicillin G and Oxytetracyclin were diluted in TSYEB (1:1) starting at a concentration of 0.05% (w/v) and diluted to 2.44×10^−5% (w/v).
(§6) Microplate assay procedure: Flat bottom 96 well sterile microtiter plates with lid to prevent cross contamination (Sarstedt, Nümbrecht, Germany) were used for the study. Each 96 well microtiter plate supported one row of wells containing the medium alone (sterility and negative control). Three rows from the first row of wells contained 1:1 dilutions of test organisms (bacterial controls equivalent to 10^5 cfu/ml in the left most well to 10^2 cfu/ml in the right most well) and the polyphenol solution from molasses highest to the lowest concentration (1% to 0.0005 w/v). Each of the combinations of polyphenol solution and bacterial cells were done in triplicate measurements. The next three rows of wells contained the same number of bacterial dilutions but the polyphenol solution was from the lowest to the highest concentration (0.0005% to 1% w/v). Each of the combinations of polyphenol solution and bacterial cells were done in triplicate measurements. The remaining row contained the same number of bacterial dilutions with growth media and polyphenol solution and was called the positive control. Replicates (n=6) of the positive control with no polyphenol solution was run on a separate plate for test organisms. Each 300 μl well contained 50 μl of inoculum, 150 μL of polyphenol solution. Each negative or sterility control well contained 200 μl of TSYEB broth. Each positive control well contained 50 μl of inoculum, 150 μl of TSYEB broth.
(§7) Penicillin G and Oxytetracyclin hydrochloride were used as reference standards to determine the sensitivity of test organisms and to compare the antimicrobial activity of the polyphenol solution with that of the antibiotics.
(§8) Optical density (OD) was determined in a spectrophotometer Sunrise-Basic Tecan (Grödig, Austria) at 540 nm. OD was determined prior to incubation and represents the spectrophotometric reading at time zero (T0). Plates were placed in an incubator at 37° C. and incubated for 22 h. Streptococcus mutans was incubated at 37° C. for 22 and 44 h. The solutions in the plates were mixed using a multichannel pipette to prevent clumping prior to reading the OD in the spectrophotometer after 22 h (T22).
(§9) Analysis of results: The calculations for Percent Inhibition were based on the study by Casey et al. 2004; Patton et al. 2006. […]

For assay [2], the system named is Staphylococcus aureus strain 6571. The conditions noted are these: 37° C., 22 h; for MIC100: lowest concentration giving 100% inhibition. The procedure:
as §1, §2, §3, §4, §5, §6, §7, §8, §9

Assay [3] relates to Streptococcus mutans ACM 969. Particulars: lowest concentration giving 100% inhibition, 37° C., growth extended to 44 h. The protocol: as §1, §2, §3, §4, §5, §6, §7, §8, §9
Setting [4] is: listed as oxytetracyclin, hydrochloride.

Structures are written as SMILES.

Regarding `CN(C)[C@@H]1C(O)=C(C(N)=O)C(=O)[C@@]2(O)C(O)=C3C(=O)c4c(O)cccc4[C@@](C)(O)[C@H]3[C@H](O)[C@@H]12.Cl` [Oxytetracylin, Oxytetracyclin hydrochloride], the MIC0 in assay [1] is listed as 2.44 × 10^−5 % w/v. Also, the MIC100 in assay [1] is given as 7.88 × 10^−4 % w/v; in assay [2] (hydrochloride), <2.44 × 10^−5 % w/v; in assay [2] (setting [4]), 2.44×10^−5 % w/v; in assay [3] (hydrochloride), <2.44 × 10^−5 % w/v; in assay [3] (setting [4]) it was 2.44×10^−5 % w/v.
As for `CC1(C)S[C@@H]2[C@H](NC(=O)Cc3ccccc3)C(=O)N2[C@H]1C(=O)O` [Penicillin G], the figures for the MIC0 in assay [1] and in assay [2] (highest concentration with no inhibition of growth) were 4.88 × 10^−5 % w/v and <2.44 × 10^−5 % w/v, respectively. Also, the MIC100 in assay [1] is recorded as 7.81 × 10^−4 % w/v; in assay [2], 9.77 × 10^−5 % w/v; in assay [3], <2.44 × 10^−5 % w/v.
